Laboratory results taken from patent US20250123268A1, “COMPOSITIONS AND METHODS FOR ACCELERATING DEVELOPMENT OF CANCER THERAPEUTICS” (NetNoids Rx Laboratories, LLC, priority 2023, published 2025).
Entries after “also recorded” stand apart in the source; their conditions may differ.

Key:
[1] = tested on: TNBC-1; assay: COMPASS C1/C3a/C3c drug regimen testing, TNBC-1 tumor volume; format: cell-based, human; settings: for tumor volume (efficacy): 50 nM & 500 nM
Procedure: Methods: COMPASS Platforms for TIME Modeling for Drug Regimen Testing: I.A. C1/C3a/C3c for TNBC-1 against 1) Doxorubicin 50 nM & 500 nM (Control: DMSO 0.01%), 2) Sacituzumab 5 nM & 20 nM [Control: PBS 0.01%] via continuous treatment w/initial administration at post-seeding Day 1; I.B. C2/C3b/C3d for GBC-1 against 1) Gemcitabine+Cisplatin 1 μM & 10 μM (G+C 7:1 ratio) (Control: DMSO 0.03%) 2) Gemcitabine+Cisplatin 1 μM+Durvalumab 0.1 nM; Gemcitabine+Cisplatin 10 μM+Durvalumab 1 nM (Control: DMSO 0.03%) (G+C 7:1 ratio) via continuous treatment w/initial administration at post-seeding Day 3; II. C1/C3b/C3d for HUAS-1 against 1) HSP90i 50 nM & 100 nM, (Control: DMSO 0.01-0.5%), 2) HSP90i 50 nM+Doxorubicin 50 nM & HSP90i 100 nM+Doxorubicin 50 nM, (Control: DMSO 0.01-0.5%) via continuous treatment w/initial administration at post-seeding Day 3; • Experimental Set-Up: Series (C1/C2) & representative parallel experimentation (C3), n=3 per group; • Evaluation: Imaging—Phase Contrast Imaging via Biotek Cytation 5 (Agilent) with partial well plug for object selection ([…] for C1/C2 & […] for C3) towards tumor volume analysis at Timepoints Day 3 and Day 7/10; • Statistics: One-way ANOVA followed by Tukey's pairwise comparison, n=3, (p<0.05).
FIGS. 28A-L: Common Cancers (TNBC and GBC) vs Established Drug Regimens (Doxorubicin/Sacituzumab and Gemcitabine+Cisplatin+/−Durvalumab, respectively) treatment profiles across progressing, appropriately-matched COMPASS Platforms at Day 3 and Day 10 Timepoints. Compass 1 is used for small molecules. Compass 2 is used in studies when Durvalumab (which is an anti-PDL 1 inhibitor) is added and it works by using the immune system (checkpoint inhibitor), which makes the immune system […]. Sub-studies highlighting the versatility of COMPASS platforms in the generation of specific Tumor-Immune-Microenvironment Models—designed appropriately for intended drug mechanism testing of already clinically-approved treatment regimens. […]

[2] = tested on: PDL-1 positive PDT of TNBC; assay: PDL-1 positive TNBC PDT tumor volume, anti-PD1 treatment, with/without PBMCs (COMPASS 2); format: cell-based, human; settings: same model without the addition of PBMCs
Procedure: All experiments were conducted with n=3 replicates and data was analyzed by One Way ANOVA followed by student's t-test to check for statistical significance.

In the case of COc1cccc2c1C(=O)c1c(O)c3c(c(O)c1C2=O)C[C@@](O)(C(=O)CO)C[C@@H]3O[C@H]1C[C@H](N)[C@H](O)[C@H](C)O1 [Doxorubicin], the “tumor volume (efficacy)” value ([1]; C1 model) is reported as “slight efficacy” and the “tumor volume (efficacy)” value ([1]; C3 models) is reported as “potential resistance”.

For Pembrolizumab [anti-PD1 inhibitor], the “immune checkpoint mediated reduction in tumor volume” value [2] was “not observed”.

Sacituzumab was tested, and the “tumor volume vs control” value ([1]; 5 nM & 20 nM, supplemental structural matrix & oxygenation (C3c), p=0.04) was “revealed efficacy in oxygenated conditions; also recorded: tumor volume reduction vs control”.
